Data published in the supplement of paper PMC11208160.

Assay: recombinant barcode read abundance after kanamycin selection (control-corrected) (log10(CPM+1)); higher = more efficient recombination; sequences stand for … in AGTGCAGAGAAAATCGGCCAGTTTTCTCTGCCTGCAGTCCGCATGCCGT…AGATTTATGCAGCGGACTGCCTTTCTCCCAAAGTGATAAACCGGACAGTATCATGGACCGGTTTTCCCGGTAATCCGTATTTGCAAGGTTGGTTTCACT; site = the 11-nt target
Method in brief: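 In a pooled screen in E. coli, targets were paired with target-binding loops of the IS621 bridge RNA. Each oligo carried a promoter, a target, a barcode and the first 104 bridge RNA bases driven by J23119, and was Gibson-cloned into a vector holding the remaining 73 bp and a T7-inducible recombinase before co-electroporation with a donor plasmid. Duplicate platings went onto chloramphenicol/ampicillin LB agar as the control or onto chloramphenicol/ampicillin/kanamycin with 0.1 mM IPTG. Recombination efficiency is the averaged, control-corrected count per million of barcodes at recombinant junctions, given as log10(CPM+1).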
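Also: IS621 recombinase and bridge RNA in Escherichia coli cells.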

Row | Sequence | recombinant barcode read abundance (log10)
1 | GTCGAACCTTGGGTTCTAACCTGTTGCTA (site GTCGAACCTTA) | 1.79
2 | GTCGAACCTTGGGTTCTAACCTGTTGCTA (site GTCGTAGCTTA) | 0.0873
3 | GTCGCGCCTTGGGTTCTAACCTGTTGCCT (site GTCGCGACTAG) | 0.221
4 | GTCGCGCCTTGGGTTCTAACCTGTTGCCT (site GTCGCGCCTAG) | 0.271
5 | GTCGCGCCTTGGGTTCTAACCTGTTGCCT (site GTCGCGGCTAG) | 0.219
6 | GTCGCGCCTTGGGTTCTAACCTGTTGCCT (site GTCGCGTCTAG) | 0.58
7 | GTCGGAACTTGGGTTCTAACCTGTTGCCT (site GTCGGAACTAG) | 1.73
8 | GTCGGAACTTGGGTTCTAACCTGTTGCCT (site GTCGGCACTAG) | 0.329
9 | GTCGGAACTTGGGTTCTAACCTGTTGCCT (site GTCGGGACTAG) | 0.174
10 | GTCGGAACTTGGGTTCTAACCTGTTGCCT (site GTCGGTACTAG) | 0.0137
11 | GTCGGTACTTGGGTTCTAACCTGTTGCCT (site GTCGGAACTAG) | 0.115
12 | GTCGGTACTTGGGTTCTAACCTGTTGCCT (site GTCGGCACTAG) | 0.0645
13 | GTCGGTACTTGGGTTCTAACCTGTTGCCT (site GTCGGGACTAG) | 0.0319
14 | GTCGGTACTTGGGTTCTAACCTGTTGCCT (site GTCGGTACTAG) | 0.952
15 | GTCGTCACTTGGGTTCTAACCTGTTGCCT (site GTCGTCACTAG) | 0.334
16 | GTCGTCACTTGGGTTCTAACCTGTTGCCT (site GTCGTCCCTAG) | 0.0716

Row | Sequence | recombinant barcode read abundance (log10)
17 | GTCGTCACTTGGGTTCTAACCTGTTGCCT (site GTCGTCGCTAG) | 0.15
18 | GTCGTCACTTGGGTTCTAACCTGTTGCCT (site GTCGTCTCTAG) | 0.0772
19 | GTCGTCCCTTGGGTTCTAACCTGTTGCCT (site GTCGTCACTAG) | 0.0509
20 | GTCGTCCCTTGGGTTCTAACCTGTTGCCT (site GTCGTCCCTAG) | 0.315
21 | GTCGTCCCTTGGGTTCTAACCTGTTGCCT (site GTCGTCGCTAG) | 0.0602
22 | GTCGTCCCTTGGGTTCTAACCTGTTGCCT (site GTCGTCTCTAG) | 0.0914
23 | GTCGTCTCTTGGGTTCTAACCTGTTGCCT (site GTCGTCACTAG) | 0.0143
24 | GTCGTCTCTTGGGTTCTAACCTGTTGCCT (site GTCGTCCCTAG) | 0.463
25 | GTCGTCTCTTGGGTTCTAACCTGTTGCCT (site GTCGTCGCTAG) | 0.136
26 | GTCGTCTCTTGGGTTCTAACCTGTTGCCT (site GTCGTCTCTAG) | 1.65
27 | GTCGTTACTTGGGTTCTAACCTGTTGCCT (site GTCGTTACTAG) | 0.339
28 | GTCGTTACTTGGGTTCTAACCTGTTGCCT (site TAGCAATCTTA) | 0.22
29 | GTCGTTCCTTGGGTTCTAACCTGTTGCCT (site GTAGTTCCTAG) | 0.535
30 | GTCGTTCCTTGGGTTCTAACCTGTTGCCT (site GTCGTTCCTAG) | 0.153
31 | GTCTAGGCTTGGGTTCTAACCTGTTGCTG (site GCCGAGGCTCA) | 0.242
32 | GTCTAGGCTTGGGTTCTAACCTGTTGCTG (site GTCTAGGCTCA) | 0.876
